In brackets after ≈: the same amount, converted by molar mass. Read-outs that look alike come from different tables or passages of the source.
Key:
[1] = physchem; assay type: physicochemical; settings: kinetic in PBS, pH 7.4
Method: (§1) The aqueous solubility and in vitro metabolic stability of selected analogs were assessed to determine if they had favorable parameters (Table 9 ).These analogs were selected based on their potency and the modifications that were incorporated, which led to compounds 55 and 56. […] The high lipophilicity of analogs 1, 11, and 16 was not favorable for metabolic stability.
(§2) This was performed as previously described.^[ [14] ^, [16] ^]

[2] = in vitro; assay type: in vitro ADME; settings: for hepatocyte CLint: rat hepatocytes; for microsomal CLint: human, microsomes, human liver microsomes
Method: as §1, §2

[3] = biological target: Albumax (Bos taurus, UniProt P02769); assay: in vitro; assay type: in vitro ADME; settings: for fraction unbound: bovine, isolated protein, read-out: Albumax binding % bound (converted)
[4] = physchem; assay type: physicochemical; settings: shake-flask method; for logD: read-out: eLogD
Method: as §2

[5] = system: P. falciparum 3D7 parasites; assay: P. falciparum 3D7 asexual stage parasite LDH assay, 72 h; assay type: cell-based, Plasmodium falciparum; settings: for EC50: Plasmodium falciparum, 3D7, 72 h, P. falciparum 3D7, LDH activity, 72 h exposure, means and SDs, 3 or more experiments, read-out: Pf parasite EC50 (SD); for fold reduction in antiplasmodial activity compared to W482 (1): ratio of 3D7 EC50 values
Method: To establish the SAR, the antiparasitic activity of the analogs was determined using an assay that measures the lactate dehydrogenase (LDH) activity of asexual P. falciparum 3D7 parasites after 72 h of compound treatment. Mammalian cytotoxicity was monitored using an assay that measures the growth of HepG2 cells using Cell Titer‐Glo after 48 h of compound treatment.
This was performed as previously described, whereby lactate dehydrogenase (LDH) was used as a metabolic marker for parasite growth after a 72‐h incubation period.^[ [14] ^, [30] ^]

[6] = system: PfABCI3-HAreg parasites; assay: Parasite proliferation assay with PfABCI3-HAreg parasites (SYBR Safe, 72 h); assay type: cell-based, Plasmodium falciparum; settings: mean ± SEM, n = 4; for IC50: Plasmodium falciparum, 72 h
Method: Glucosamine (GlcN) (5 mM) was used to reduce the level of pfabci3‐ha. Chloroquine and MMV020746 were used as negative and positive controls, respectively.
Figure 4 Sensitivity of PfABCI3‐HAreg parasites to growth inhibition by chloroquine (a), MMV020746 (b), and W482 (1) (c). Data for parasites in which pfabci3‐ha mRNA was reduced (+ GlcN) are shown in red. GlcN (5 mM) was added to the parasites 48 h prior to the assay and maintained throughout the 72 h assay. The data for parasites expressing a normal level of PfABCI3‐HA (‐GlcN) are shown in black. The data in all panels are from four independent experiments performed on different days. […] Parasites that were treated with or without GlcN (5 mM) were tested concurrently in each assay. TEXT PRINTED IN THE PICTURE: chloroquine: IC50 ± SEM (nM) - GlcN: 12.6 ± 1.1; IC50 ± SEM (nM) + GlcN: 11.9 ± 1.5 | MMV020746: IC50 ± SEM (nM) - GlcN: 104 ± 13; IC50 ± SEM (nM) + GlcN: 32.9 ± 3.9 | W482 (1): IC50 ± SEM (nM) - GlcN: 312 ± 28; IC50 ± SEM (nM) + GlcN: 153 ± 12
Parasite proliferation assays were performed with PfABCI3‐HAreg parasites^[ [19] ^] according to a previously described method, with the fluorescent nucleic acid intercalating dye SYBR Safe used to measure parasite viability.^[ [32] ^, [33] ^] The assays were commenced with cultures consisting of predominantly ring‐stage parasites with a starting hematocrit of 1% and parasitemia of 1%. […] It was shown previously that there is a reduction in pfabci3‐ha mRNA in PfABCI3‐HAreg exposed to 5 mM GlcN and a decrease in parasite viability over time.^[ [19] ^] The level of knockdown of the protein is not known.

[7] = system: Plasmodium falciparum strain 3D7A; assay: Parasite reduction ratio assay; assay type: cell-based; settings: 10 × EC50, 24 and 48 h treatment, P. falciparum 3D7
From the text: Figure 5 a) Stage of arrest assay showing that W482 (1) blocks ring‐trophozoite transition in the asexual stage of P. falciparum. […] Replicates of Giemsa‐stained blood smears can be found in Figure S4 (Supporting Information). c) Parasite reduction ratio assay conducted at 10 × EC50 of W482 (1). Data represent means and SD of P. falciparum 3D7 parasite survival measuring 3 independent replicates by two‐color flow cytometry using CFDA‐SE and Hoescht 33,342 staining.
Samples of parasites were collected at 24‐ and 48‐hour timepoints, whereby the compound was washed out and fresh erythrocytes pre‐labeled with intracellular dye were added. Samples were then incubated for 18 days, and then the number of viable parasites was quantified by flow cytometry (Figure 5c).
This assay was conducted following a previously described protocol using the Plasmodium falciparum strain 3D7A, MRA‐151.^[ [19] ^, [28] ^] The human biological samples used in the study were sourced ethically, and their research use was conducted in accordance with the terms of informed consent under an IRB/EC‐approved protocol.

[8] = read-out: Aqueous solubility pH 7.4
[9] = aqueous buffer, kinetic from dmso stock

Chain of Albumax (P02769 25-607): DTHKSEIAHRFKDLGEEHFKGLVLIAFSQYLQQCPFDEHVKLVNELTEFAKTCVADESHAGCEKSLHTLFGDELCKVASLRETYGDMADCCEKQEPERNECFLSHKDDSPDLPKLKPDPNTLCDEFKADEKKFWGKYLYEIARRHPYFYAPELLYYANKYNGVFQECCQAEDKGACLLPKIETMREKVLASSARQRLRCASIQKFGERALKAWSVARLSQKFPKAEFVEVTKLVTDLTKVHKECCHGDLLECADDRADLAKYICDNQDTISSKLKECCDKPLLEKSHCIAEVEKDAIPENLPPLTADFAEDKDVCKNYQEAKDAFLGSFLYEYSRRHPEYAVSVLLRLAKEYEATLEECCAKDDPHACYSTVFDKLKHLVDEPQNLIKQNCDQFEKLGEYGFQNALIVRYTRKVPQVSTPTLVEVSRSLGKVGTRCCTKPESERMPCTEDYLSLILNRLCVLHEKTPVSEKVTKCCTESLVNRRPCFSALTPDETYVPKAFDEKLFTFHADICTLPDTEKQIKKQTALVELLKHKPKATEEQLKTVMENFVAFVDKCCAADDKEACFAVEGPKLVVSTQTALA

Compound | EC50 [5] [nM] | further results
3‐Cyclohexyl‐N‐(4‐((4‐methyl‐6‐(4‐methylpiperazin‐1‐yl)pyrimidin‐2‐yl)amino)phenyl)propenamide [Compound 11] |  | solubility [1, 8]: 2.6 µM; Rat hepatocytes CLint [2]: >92 µL/min/10^6 cells; Albumax binding % bound [3]: 99.9%; eLogD [4]: 4.6–5.0
Cc1cc(N(C)C)cc(Nc2ccc(NC(=O)CCC3CCCCC3)cc2)n1 [Compound 20, 3‐Cyclohexyl‐N‐(4‐((4‐(dimethylamino)‐6‐methylpyridin‐2‐yl)amino)phenyl)propanamide] | 880 | 
Cc1cc(N(C)Cc2ccccc2)nc(Nc2ccc(NC(=O)CCC3CCCCC3)cc2)n1 [Compound 6, N‐(4‐((4‐(Benzyl(methyl)amino)‐6‐methylpyrimidin‐2‐yl)amino)phenyl)‐3‐cyclohexylpropanamide] | 600 | 
O=C(Nc1ccc(F)cc1)Nc1ccc(Nc2nc(N3CCNCC3)c3ccccc3n2)cc1 [Compound 56, 1‐(4‐Fluorophenyl)‐3‐(4‐((4‐(piperazin‐1‐yl)quinazolin‐2‐yl)amino)phenyl)urea] | 180 | solubility [1, 9]: 9.6 µM (≈ 4.39 µg/mL); hepatocyte CLint [2]: 21 µL/min/1e6 cells; fraction unbound [3]: 0.001; logD [4]: 2.2
Cc1cc(N(C)C)nc(Nc2ccc(NC(=O)Nc3ccccc3F)cc2)n1 [Compound 45] | 3420 | 
Cc1cc(N(C)C)nc(Nc2ccc(NC(=O)Nc3ccccc3C)cc2)n1 [Compound 47] | 410 | 
Cc1cc(N(C)C)nc(Nc2ccc(NC(=O)c3ccccc3Br)cc2)n1 [Compound 36] | 1850 | 
Cc1cccc(C(=O)Nc2ccc(Nc3nc(C)cc(N(C)C)n3)cc2)c1 [Compound 40] | 1080 | fold reduction in antiplasmodial activity compared to W482 (1) [5]: 2 fold
Cc1cc(Nc2ccc(NC(=O)CCC3CCCCC3)cc2)nc(N(C)C)c1 [Compound 19, 3‐Cyclohexyl‐N‐(4‐((6‐(dimethylamino)‐4‐methylpyridin‐2‐yl)amino)phenyl)propanamide] | 610 | 
Cc1cc(N(C)C)nc(Nc2ccc(NC(=O)Nc3ccc(F)cc3)cc2)n1 [Compound 51] | 300 | solubility [1, 9]: 3.7 µM (≈ 1.41 µg/mL); microsomal CLint [2]: 26 µL/min/mg; hepatocyte CLint [2]: 32 µL/min/1e6 cells; fraction unbound [3]: 0.016; logD [4]: 3
Cc1cc(N(C)C)nc(Nc2ccc(NC(=O)CCC3CCCC3)cc2)n1 [Compound 34] | 1000 | fold reduction in antiplasmodial activity compared to W482 (1) [5]: 2 fold
Cc1cc(N(C)C)nc(Nc2ccc(NC(=O)c3ccccc3Cl)cc2)n1 [Compound 35] | 2120 | 
O=C(CCC1CCCCC1)Nc1ccc(Nc2nc(N3CCNCC3)c3ccccc3n2)cc1 [Compound 55, 3‐Cyclohexyl‐N‐(4‐((4‐(piperazin‐1‐yl)quinazolin‐2‐yl)amino)phenyl)propanamide] | 230 | solubility [1, 9]: 2.5 µM (≈ 1.15 µg/mL); Human liver microsomes CLint [2]: 117 µL/min/mg; microsomal CLint [2]: > 117 µL/min/mg; hepatocyte CLint [2]: 27 µL/min/1e6 cells; fraction unbound [3]: 0.002; logD [4]: 3.2
Cc1cc(N(C)C)nc(Nc2ccc(NC(=O)c3cccs3)cc2)n1 [Compound 27] | 1440 | 
CCN(CC)CCCC(C)Nc1ccnc2cc(Cl)ccc12 (centres unmarked) [chloroquine, reference compound] |  | IC50 ([6]; PfABCI3-HAreg parasites expressing normal level of PfABCI3-HA (-GlcN)): 12.6 ± 1.1 nM; IC50 ([6]; PfABCI3-HAreg parasites with reduced pfabci3-ha mRNA (+ 5 mM GlcN)): 11.9 ± 1.5 nM; fold lower IC50 for +GlcN parasites than -GlcN parasites [6]: equally potent
Cc1cc(C)cc(C(=O)Nc2ccc(Nc3nc(C)cc(N(C)C)n3)cc2)c1 [Compound 41] | 590 | 
Cc1ccc(NC(=O)Nc2ccc(Nc3nc(C)cc(N(C)C)n3)cc2)cc1 [Compound 53] | 440 | 
CN(C)c1nc(Nc2ccc(NC(=O)CCC3CCCCC3)cc2)cc2ccccc12 [Compound 21, 3‐Cyclohexyl‐N‐(4‐((1‐(dimethylamino)isoquinolin‐3‐yl)amino)phenyl)propanamide] | > 10000 | 
Cc1cc(N(C)C)nc(Nc2ccc(NC(=O)c3cccc(Br)c3)cc2)n1 [Compound 39] | 450 | 
Cc1cc(N(C)C)nc(Nc2ccc(NC(=O)c3ccco3)cc2)n1 [Compound 28] | 3900 | 

Compound | EC50 [5] [nM] | further results
3‐Cyclohexyl‐N‐(4‐((4‐methyl‐6‐morpholinopyrimidin‐2‐yl)amino)phenyl)propenamide [Compound 9] |  | fold reduction in antiplasmodial activity compared to W482 (1) [5]: 4 fold
COc1ccc(Cl)cc1C(=O)Nc1ccc(Nc2nc(C)cc(N(C)C)n2)cc1 [Compound 44] | 490 | 
3‐Cyclohexyl‐N‐(4‐((4‐(dimethylamino)quinazolin‐2‐yl)amino)phenyl)propenamide [Compound 16] |  | solubility [1, 8]: 2.5 µM; Human liver microsomes CLint [2]: 166 µL/min/mg; Rat hepatocytes CLint [2]: >92 µL/min/10^6 cells; Albumax binding % bound [3]: 96.6%; eLogD [4]: 4.6–5.0
Cc1cc(N(C)C)nc(Nc2ccc(NC(=O)Nc3cccc(Cl)c3)cc2)n1 [Compound 49] | 240 | 
Cc1cc(N(C)C)nc(Nc2ccc(NC(=O)Nc3ccccc3Cl)cc2)n1 [Compound 46] | > 10000 | 
Cc1cc(N(C)C)nc(Nc2ccc(NC(=O)C3CCCCC3)cc2)n1 [Compound 33] | 930 | 
Cc1cc(N(C)C)nc(Nc2ccc(NC(=O)c3ccccc3C(F)(F)F)cc2)n1 [Compound 37] | 850 | fold reduction in antiplasmodial activity compared to W482 (1) [5]: 2 fold
CCc1nc(N)nc(N)c1-c1ccc(Cl)cc1 [Pyrimethamine, reference compound] |  | asexual speed-of-kill profile [7]: moderate killing rate
Cc1cc(N(C)C)nc(Nc2ccc(NC(=O)c3ccc4ccccc4c3)cc2)n1 [Compound 29] | 360 | 
COc1ccccc1NC(=O)Nc1ccc(Nc2nc(C)cc(N(C)C)n2)cc1 [Compound 48] | 380 | 
Cc1cc(N(C)C)nc(Nc2ccc(NC(=O)c3ccc(C)c(C)c3)cc2)n1 [Compound 42] | 660 | 
Cc1cccc(NC(=O)Nc2ccc(Nc3nc(C)cc(N(C)C)n3)cc2)c1 [Compound 50] | 240 | 
COc1cc(OC)cc(C(=O)Nc2ccc(Nc3nc(C)cc(N(C)C)n3)cc2)c1 [Compound 43] | 640 | 
3‐Cyclohexyl‐N‐(6‐((4‐(dimethylamino)‐6‐methylpyrimidin‐2‐yl)amino)pyridin‐3‐yl)propenamide [Compound 25] |  | fold reduction in antiplasmodial activity compared to W482 (1) [5]: 8 fold
Cc1cc(N(C)C)nc(Nc2ccc(NC(=O)CC(C)C)cc2)n1 [Compound 32] | 1630 | 
COc1ccc(NC(=O)Nc2ccc(Nc3nc(C)cc(N(C)C)n3)cc2)cc1 [Compound 54] | 400 | 
Cc1cc(N(C)C)nc(Nc2ccc(NC(=O)C(C)C)cc2)n1 [Compound 30] | 3760 | 
Cc1cc(N(C)C)nc(Nc2ccc(NC(=O)Nc3ccc(Cl)cc3)cc2)n1 [Compound 52] | 340 | 
Cc1cc(N(C)C)nc(Nc2ccc(NC(=O)c3cccc(F)c3)cc2)n1 [Compound 38] | 780 | fold reduction in antiplasmodial activity compared to W482 (1) [5]: 2 fold
Cc1cc(N(C)C)nc(Nc2ccc(NC(=O)C(C)(C)C)cc2)n1 [Compound 31] | 3360 | 

— publication PMC12811996, “Exploration and Characterization of the Antimalarial Activity of Pyrimidine‐2,4‐Diamines for which Resistance is Mediated by the ABCI3 Transporter” (Chemmedchem, 2025)
